Laboratory results as given in patent publication US6441000B1, “Compounds useful in therapy” (Pfizer Inc, priority 1999, dated 2002).

target: T1, mu opioid receptor (Canis lupus familiaris, UniProt A0A0F6TMT6); assay: mu opioid receptor binding assay (displacement of 3H-DAMGO) in dog brain membranes; settings: 3H ligand DAMGO, room temperature 90 minutes, read-out: Ki values for the μ receptor
T1 construct: from tissue; host or cells: beagle brain without cerebellum, membrane homogenate
Method: The assays were conducted by the following procedure.
Laboratory bred beagles were used as a source of dog brain tissue. Animals were euthanised, their brains removed and the cerebellum discarded. The remaining brain tissue was sectioned into small pieces approximately 3 g in weight and homogenised in 50 mM Tris pH 7.4 buffer at 4° C. using a Kinematica Polytron™ tissue homogeniser. The resulting homogenate was centrifuged at 48,400×g for 10 minutes and the supernatant discarded. The pellet was resuspended in Tris buffer and incubated at 37° C. for 10 minutes. Centrifugation, resuspension and incubation steps were repeated twice more, and the final pellet was resuspended in Tris buffer and stored at −80° C. Membrane material prepared in this manner could be stored for up to four weeks prior to use.
For mu assays, increasing concentrations of experimental compound, (5×10^−12 to 10^−5 M), Tris buffer and ^3H ligand, ([D-Ala^2,N-Me-Phe^4,Gly-ol^5]-Enkephalin, DAMGO), were combined in polystyrene tubes. The reaction was initiated by the addition of tissue, and the mixture was incubated at room temperature for 90 minutes. The reaction was terminated by rapid filtration using a Brandel Cell Harvester™ through Betaplate™ GF/A glass fibre filters pre-soaked in 50 mM Tris pH 7.4, 0.1% polyethylenimine buffer. The filters were then washed three times with 0.5 mL ice-cold Tris pH 7.4 buffer. Washed filters were placed in bags and Starscint™ scintillant added. Bags containing the filters and scintillant were heat sealed and counted by a Betaplate™ 1204 beta counter.
Duplicate samples were run for each experimental compound and the data generated was analysed using IC50 analysis software in Graphpad Prism.
Ki values were calculated using Graphpad Prism according to the following formula:
Ki=IC50/1+[^3H ligand]/KD
where IC50 is the concentration at which 50% of the ^3H ligand is displaced by the test compound and KD is the dissociation constant for the ^3H ligand at the receptor site.

T1 sequence (A0A0F6TMT6 1-401): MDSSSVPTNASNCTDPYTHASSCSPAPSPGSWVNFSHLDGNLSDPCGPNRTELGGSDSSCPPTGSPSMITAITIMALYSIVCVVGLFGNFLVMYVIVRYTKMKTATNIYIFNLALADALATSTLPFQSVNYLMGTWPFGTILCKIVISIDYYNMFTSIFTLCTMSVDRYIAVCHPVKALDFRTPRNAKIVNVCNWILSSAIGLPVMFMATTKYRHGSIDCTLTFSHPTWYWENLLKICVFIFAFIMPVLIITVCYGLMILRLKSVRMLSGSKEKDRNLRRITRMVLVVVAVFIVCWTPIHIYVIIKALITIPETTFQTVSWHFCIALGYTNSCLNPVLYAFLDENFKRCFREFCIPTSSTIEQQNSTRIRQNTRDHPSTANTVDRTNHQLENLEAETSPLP

For CCCCCCN1CCC(C)(c2ccc3nc(C)oc3c2)C(C)C1 (racemic) [Example 28, Trans-(±)-2-Methyl-6-(1-hexyl-3,4-dimethyl-4-piperidinyl)-1,3-benzoxazole], which Ki is on record?
The Ki was at most 4 µM.

For CCCCCCN1CCC(C)(c2ccc3[nH]c(C)nc3c2)C(C)C1 (racemic) [Example 3, Trans-(±)-2-Methyl-5-(1-hexyl-3,4-dimethyl-4-piperidinyl)-1H-benzimidazole], which Ki is on record?
The Ki was at most 4 µM.

How did the Ki turn out when CC(C)CCCCN1CCC(C)(c2ccc3[nH]cnc3c2)C(C)C1 (racemic) [Example 21, Trans-(±)-5-[1-(5-Methylhexyl)-3,4-dimethyl-4-piperidinyl]-1H-benzimidazole] was run?
Its Ki is at most 4 µM.

For CCCCCCN1CCC(C)(c2ccc3[nH]c(OC)nc3c2)C(C)C1 (racemic) [Example 7, Trans-(±)-2-Methoxy-5-(1-hexyl-3,4-dimethyl-4-piperidinyl)-1H-benzimidazole], which Ki is on record?
The Ki was at most 4 µM.

With Cc1cccc(CCN2CCC(C)(c3ccc4[nH]c(C(F)(F)F)nc4c3)C(C)C2)c1 (racemic) [Example 18, Trans-(±)-2-(Trifluoromethyl)-5-[1-(3-methylphenethyl)-3,4-dimethyl-4-piperidinyl]-1H-benzimidazole] as the molecule, how does the Ki read?
The Ki was at most 4 µM.

For CCCCCCN1CCC(C)(c2ccc3[nH]c(CC)nc3c2)C(C)C1 (racemic) [Example 12, Trans-(±)-2-ethyl-5-(1-Hexyl-3,4-dimethyl-4-piperidinyl)-1H-benzimidazole], which Ki is on record?
The Ki was at most 4 µM.
